Test results taken from patent US20100016213A1, “USE OF A DITERPENOID COMPOUND FOR TREATING DIABETES” (National Taiwan University, priority 2008, published 2010).

Key:
Format in all cases: in vivo
[1] = test system: Diet-induced diabetic (NIDDM) mice; assay: Plasma insulin levels before and after treatment (Insulin ELISA), diet-induced diabetic mice; settings: for Plasma insulin, Pre-treatment: before treatment; for Plasma insulin, post-treatment: one hour after treatment
Protocol: (§1) Normal mice, STZ-induced diabetic mice, and diet-induced diabetic mice were administered with a vehicle control, borapetoside A (5.0 mg/kg), borapetoside C (at various doses), glibenclamide (5.0 mg/kg) or metformin (500 mg/kg) by intraperitoneal injection. These mice were examined for their blood insulin levels before and one hour after treatment, using the Insulin(Rat) ELISA kit obtained from Penisula Lab. Inc., San Carlos, Calif., USA.

[2] = test system: DIO-induced diabetic mice; assay: Intraperitoneal glucose tolerance test (IPGTT), DIO-induced diabetic mice; settings: diet-induced diabetic mice, borapetoside C 5.0 mg/kg
Protocol: (§2) Normal ICR mice and DIO-induced diabetic mice, treated with borapetoside C (5.0 mg/kg), a vehicle control, or glibenclamide (positive control), were subjected to an intraperitoneal glucose tolerance test (IPGTT) as described in Lamont et al., Diabetes 2008; 57: 190-198. More specifically, glucose (2.0 mg/g body weight) was administered via IP injection to normal and DIO mice and blood samples were drawn from the treated mice before and 30, 60, 120, and 150 min after glucose administration for examination of glucose levels.
In diet-induced diabetic mice treated with borapetoside C, the vehicle control, and glibenclamide, the basal plasma glucose concentrations were 181.6±12.3 mg/dL, 183.1±2.9 mg/dL, and 185.3±7.7 mg/dL, respectively. Thirty minutes after intraperitoneal glucose injection, the plasma glucose concentration was elevated to 405.6±8.9 mg/dL in vehicle-treated mice, to 343.5±11.2 mg/dL in borapetoside C-treated mice, or to 339.1±15.4 mg/dL in glibenclamide-treated mice.

[3] = test system: normal mice; assay: Lowering plasma glucose levels via oral administration, normal mice; settings: oral 10.0 mg/kg, sixty minutes after treatment, mean ± SEM, six animals
Protocol: Normal, STZ-induced diabetic mice, and diet-induced diabetic mice were administered orally with 10.0 mg/kg borapetoside C, glibenclamide or metformin as a positive control, and a vehicle control. The plasma glucose levels of the treated mice were determined before and sixty minutes after treatment and the results thus obtained were shown in Table 3 below.

[4] = test system: STZ-induced diabetic mice; assay: Lowering plasma glucose level, intraperitoneal injection, STZ-induced diabetic mice (type I diabetes model); settings: for Plasma Glucose Level, After: after treatment; for Plasma Glucose Level, Before: before treatment
Protocol: (§3) Normal and streptozotocin (STZ)-induced diabetic mice were administered with borapetoside A (5.0 mg/kg), borapetoside C (5.0 mg/kg), glibenclamide (5.0 mg/kg), metformin (500.0 mg/kg), or a vehicle control via intraperitoneal injection. STZ-induced diabetic mice are a well-known mouse model of type I diabetes (insulin dependent). See, e.g., Liu I M, et al., Neuroscience Letters 2001; 307: 81-84. Glibenclamide and metformin serve as two positive controls in this study.
(§4) The plasma glucose levels of the treated mice were determined before and one hour after administration. The activity of lowering plasma glucose levels (AL) is calculated following the formula: […]
(§5) Borapetoside C was administered to normal mice at 0.1, 1.0, 3.0, and 5.0 mg/kg and to STZ-diabetic mice at 0.1, 1.0, 3.0, and 5.0 mg/kg. The plasma glucose levels of the treated mice were examined before and after treatment.

[5] = test system: normal mice; assay: Insulin sensitivity: plasma glucose reduction with insulin plus borapetoside C or vehicle, normal mice; settings: thirty minutes after insulin
Protocol: The effect of borapetoside C on insulin sensitivity was tested following the method described in Liu, et al., Clinical and Experimental Pharmacology and Physiology 2005; 32: 649-654. Normal mice (n=6), STZ-induced diabetic mice (n=5), and DIO-induced diabetic mice (n=7) were treated with insulin at various doses (i.e., 0.1 IU/kg, 0.5 IU/kg, and 1.0 IU/kg) together with either borapetoside C (0.1 mg/kg) or a vehicle control. Their plasma glucose levels were examined before and thirty minutes after insulin administration. The activity of lowering plasma glucose levels (AL) was calculated following the formula described in Example 2 above.

[6] = test system: normal mice; assay: Lowering plasma glucose level, intraperitoneal injection, normal mice; settings: for Plasma Glucose Level, After / Plasma Glucose Level, Before: Normal mice; for Plasma Glucose Level, After: after treatment; for Plasma Glucose Level, Before: before treatment
Protocol: as §3, §4, §5

[7] = test system: Normal ICR mice; assay: Intraperitoneal glucose tolerance test (IPGTT), normal ICR mice; settings: borapetoside C 5.0 mg/kg
Protocol: as §2
In normal mice treated with borapetoside C, the vehicle control, and glibenclamide, the basal plasma glucose concentrations were 106.8±4.7 mg/dL, 114.7±4.6 mg/dL, and 104.9±3.1 mg/dL, respectively. Thirty minutes after intraperitoneal glucose injection, the plasma glucose concentration was elevated to 346.2±14.7 mg/dL in vehicle-treated mice, to 292.9±10.9 mg/dL in borapetoside C-treated mice, or to 273.4±13.6 mg/dL in glibenclamide-treated mice.

[8] = test system: STZ-diabetic mice (IDDM); assay: Plasma insulin levels before and after treatment (Insulin ELISA), STZ-diabetic mice; settings: for Plasma insulin, Pre-treatment: before treatment; for Plasma insulin, post-treatment: one hour after treatment
Protocol: as §1

[9] = test system: liver phosphoenolpyruvate carboxykinase (PEPCK); assay: Liver PEPCK levels by western blot in STZ-induced mice; settings: borapetoside C 5.0 mg/kg, twice per day for 7 days, insulin dose not given
Protocol: To characterize the effect of borapetoside C on liver glucose utilization, levels of liver phosphoenolpyruvate carboxykinase (PEPCK) were examined by western blot analysis in STZ-induced mice treated with borapetoside C (5.0 mg/kg, twice per day for 7 days), insulin, or a vehicle control.

COC(=O)C1=CCC[C@H]2[C@]3(C)C[C@@H](c4ccoc4)OC(=O)[C@@H]3C[C@@H](O[C@@H]3O[C@H](CO)[C@@H](O)[C@H](O)[C@H]3O)[C@@]12C [borapetoside C]
Plasma insulin, Pre-treatment ([1]; 0.1 mg/kg i.p.): 110.3 ± 4.5 pmol/L
Plasma insulin, post-treatment ([1]; 0.1 mg/kg i.p.): 114.0 ± 7.6 pmol/L
Plasma insulin, Pre-treatment ([1]; 0.5 mg/kg i.p.): 116.5 ± 5.7 pmol/L
Plasma insulin, post-treatment ([1]; 0.5 mg/kg i.p.): 174.7 ± 4.8 pmol/L
Plasma insulin, Pre-treatment ([1]; 1.0 mg/kg i.p.): 111.1 ± 2.0 pmol/L
Plasma insulin, post-treatment ([1]; 1.0 mg/kg i.p.): 178.5 ± 14.6 pmol/L
Plasma insulin, Pre-treatment ([1]; 3.0 mg/kg i.p.): 113.2 ± 2.8 pmol/L
Plasma insulin, post-treatment ([1]; 3.0 mg/kg i.p.): 254.0 ± 23.4 pmol/L
Plasma insulin, Pre-treatment ([1]; 5.0 mg/kg i.p.): 107.4 ± 5.5 pmol/L
Plasma insulin, post-treatment ([1]; 5.0 mg/kg i.p.): 255.8 ± 15.9 pmol/L
basal plasma glucose concentration (IPGTT) ([2]; before glucose injection): 181.6 ± 12.3 mg/dL
plasma glucose levels at 60 min, 120 min, and 150 min versus control mice (IPGTT) ([2]; glucose 2.0 mg/g IP): significantly lower
plasma glucose concentration thirty minutes after intraperitoneal glucose injection (IPGTT) ([2]; glucose 2.0 mg/g body weight IP, vehicle 405.6±8.9): 343.5 ± 11.2 mg/dL
Activity of lowing plasma glucose levels (%) [3]: 23.1 ± 2.8 %
Plasma Glucose Level, After ([4]; 0.1 mg/kg): 529.0 ± 14.7 mg/dL
Plasma Glucose Level, Before ([4]; 0.1 mg/kg): 580.0 ± 7.8 mg/dL
Plasma Glucose Level, After ([4]; 1.0 mg/kg): 472.2 ± 13.9 mg/dL
Plasma Glucose Level, Before ([4]; 1.0 mg/kg): 566.6 ± 11.4 mg/dL
Plasma Glucose Level, After ([4]; 3.0 mg/kg): 493.8 ± 15.3 mg/dL
Plasma Glucose Level, Before ([4]; 3.0 mg/kg): 572.2 ± 16.2 mg/dL
Activities of Lowering Plasma Glucose Levels (AL) ([4]; 5.0 mg/kg intraperitoneal injection, one hour after administration): 16.5 ± 2.9%
Plasma Glucose Level, After ([4]; 5.0 mg/kg): 481.1 ± 20.8 mg/dL
Plasma Glucose Level, Before ([4]; 5.0 mg/kg): 576.0 ± 11.1 mg/dL
AL (%) ([5]; Borapetoside C 0.1 mg/kg together with Insulin 0.1 IU/kg): 17.2 ± 1.2%
AL (%) ([5]; Borapetoside C 0.1 mg/kg together with Insulin 0.5 IU/kg): 45.7 ± 3.7%
AL (%) ([5]; Borapetoside C 0.1 mg/kg together with Insulin 1.0 IU/kg): 64.7 ± 1.8 %
Plasma Glucose Level, After ([6]; 0.1 mg/kg): 97.7 ± 6.2 mg/dL
Plasma Glucose Level, Before ([6]; 0.1 mg/kg): 99.7 ± 3.8 mg/dL
Plasma Glucose Level, After ([6]; 1.0 mg/kg): 82.6 ± 2.9 mg/dL
Plasma Glucose Level, Before ([6]; 1.0 mg/kg): 96.4 ± 4.2 mg/dL
Plasma Glucose Level, After ([6]; 3.0 mg/kg): 79.4 ± 6.9 mg/dL
Plasma Glucose Level, Before ([6]; 3.0 mg/kg): 96.3 ± 8.0 mg/dL
Plasma Glucose Level, After ([6]; 5.0 mg/kg): 67.0 ± 4.5 mg/dL
Plasma Glucose Level, Before ([6]; 5.0 mg/kg): 98.2 ± 3.9 mg/dL
Activities of Lowering Plasma Glucose Levels (AL) ([6]; normal mice, 5.0 mg/kg intraperitoneal injection, one hour after administration): 36.2 ± 5.6%
basal plasma glucose concentration (IPGTT) ([7]; before glucose injection): 106.8 ± 4.7 mg/dL
plasma glucose levels at 60 min, 120 min, and 150 min versus control mice (IPGTT) ([7]; glucose 2.0 mg/g IP): significantly lower
plasma glucose concentration thirty minutes after intraperitoneal glucose injection (IPGTT) ([7]; glucose 2.0 mg/g body weight IP, vehicle 346.2±14.7): 292.9 ± 10.9 mg/dL
Plasma insulin, Pre-treatment ([8]; 0.1 mg/kg i.p.): 15.2 ± 0.8 pmol/L
Plasma insulin, post-treatment ([8]; 0.1 mg/kg i.p.): 16.3 ± 0.9 pmol/L
Plasma insulin, Pre-treatment ([8]; 0.5 mg/kg i.p.): 15.5 ± 0.6 pmol/L
Plasma insulin, post-treatment ([8]; 0.5 mg/kg i.p.): 15.9 ± 0.6 pmol/L
Plasma insulin, Pre-treatment ([8]; 1.0 mg/kg i.p.): 15.7 ± 0.8 pmol/L
Plasma insulin, post-treatment ([8]; 1.0 mg/kg i.p.): 15.9 ± 0.4 pmol/L
Plasma insulin, Pre-treatment ([8]; 3.0 mg/kg i.p.): 13.8 ± 1.6 pmol/L
Plasma insulin, post-treatment ([8]; 3.0 mg/kg i.p.): 14.8 ± 0.5 pmol/L
Plasma insulin, Pre-treatment ([8]; 5.0 mg/kg i.p.): 15.0 ± 0.5 pmol/L
Plasma insulin, post-treatment ([8]; 5.0 mg/kg i.p.): 14.4 ± 0.6 pmol/L
liver PEPCK levels versus vehicle control-treated mice (western blot) [9]: much lower
